Measured values published in patent US20100286174A1, “INHIBITING GSNOR” (Duke University, priority 2009, published 2010).

System: diabetic nephropathy
Assay: Treatment of patient with diabetic nephropathy (Working Example IV)
Type: in vivo, human
Conditions: person, creatinine of 3 at start; final concentration 6 micromolar; follow up 2 months later
Text: A person with diabetic nephropathy and creatinine of 3 is started on compound 6 at a final concentration of 6 micromolar and at follow up 2 months later, the creatinine is 2.

## CC(=O)CCc1ccc(-c2ccccc2)n1-c1ccc(C(C)=O)cc1 [compound 6]
  creatinine: 2
